Molecules are shown by their SMILES.

Series [1] deals with Pyrenophora teres. The series is described as follows: Protective effect of Pyrenophora teres on barley seedlings (spray, protection value from lesion area ratio; Colby's equation for mixtures). The class given is in vivo. As for the experimental part: (§1) Hereunder, the evaluation of each fungicide was carried out by converting the ratio into a protection value after measuring the lesion area ratio (in percentage). The protectin value was calculated by means of the equation as follows.
(§2) protection value=(1−(lesion area in the division treated with fungicide)/lesion area in the division not treated with fungicide))×100
(§3) An estimated protection value of a mixture of active ingredients was calculated according to the Colby's equation [R. S. Colby, Weeds 15, 20-22 (1967)] and compared with the experimental protection value.
(§4) wherein E is the estimated protection value (additive effect) which will be obtained when the active ingredients A and B are used in a mixture in concentrations a and b, respectively, x is the protection value obtained when the active ingredient A is used in a concentration a, and y is the protection value obtained when the active ingredient B is used in a concentration b. […] A protection value 0 means that the lesion area ratio of the plants in the test group is as large as that of the plants in the untreated control group. A protective value 100 means that the plants in the test group are free from the disease.
The supplied compound (that is, the compound to which number (No.) was attached in Table 1), and A (picoxystrobin), B (trifloxystrobin), C (pyraclostrobin), D (cresoxime methyl), E (epoxiconazole), F (flusilazole) and G (tebuconasole) shown in Table 31 were, alone or in a mixture form, dissolved into dimethylformamide (final concentration: 1% by weight). Thereto were added xylene (final concentration: 0.02% by weight) and Tween 20 (trade name) (final concentration: 0.02% by weight), and then the solution was diluted with water to have a desired effective component concentration (ppm). To this solution was added a spreading agent SINDAIN (trade name, made by Takeda Chemical Industries, Ltd.) containing 20% by weight of polyoxyethylene nonylphenyl ether and 12% by weight of calcium ligninsulfonate so as to have a final concentration of 0.05% by weight. Thus, a spray solution was prepared. The solution was sprayed, at a rate of 40 ml/pot, onto barley seedlings (cultural variety: Shiaga Hasseki No. 5) grown for 1 week in a greenhouse. After air drying, a suspension containing spores (5×10^5/ml) of Pyrenophora teres was sprayed and inoculated thereto at a rate of 2 ml/pot. After the inoculation, the seedlings were kept inside a high-humidity box having a temperature of 24° C. for 18 hours and then put into a room. After 9 days, the lesion area ratio on the treated leaves was investigated.

Series [2] has as its system Alternaria mali. As to the kind of experiment: Prevention effect of Alternaria mali on apple seedlings (spray, protection value from lesion area ratio; Colby's equation for mixtures). It counts as in vivo. The method, then: as §1, §2, §3, §4
The supplied compound (that is, the compound to which number (No.) was attached in Table 1-29), and A (picoxystrobin), B (trifloxystrobin), and C (pyraclostrobin) shown in Table 30 were, alone or in a mixture form, dissolved into dimethylformamide (final concentration: 1% by weight). Thereto were added xylene (final concentration: 0.02% by weight) and Tween 20 (trade name) (final concentration: 0.02% by weight), and then the solution was diluted with water to have a desired effective component concentration (ppm). To this solution was added a spreading agent SINDAIN (trade name, made by Takeda Chemical Industries, Ltd.) containing 20% by weight of polyoxyethylene nonylphenyl ether and 12% by weight of calcium ligninsulfonate so as to have a final concentration of 0.05% by weight. Thus, a spray solution was prepared. The solution was sprayed, at a rate of 10 ml/pot, onto the apple seedlings (cultural variety: Star King Delicous) grown for 3 or 4 weeks in a greenhouse. After one day from the treatment, a suspension containing a 1% yeast extract, a 1% sucrose, and spores (5×10^5/ml) of Alternaria mali was sprayed and inoculated thereto at a rate of 1 ml/pot. After the inoculation, the trees were kept inside a high-humidity box having a temperature of 28° C. for 4 days. Thereafter, the lesion area ratio on the treated leaves was examined.

`Fc1ccc([C@]2(Cn3cncn3)O[C@H]2c2ccccc2Cl)cc1` (racemic) [epoxiconazole, (2RS,3SR)-1-[3-(2-chlorophenyl)-2,3-epoxy-2-(4-fluorophenyl)propyl]-1H-1,2,4-triazole]: in series [1] (5.0 ppm active ingredient), the “Lesion area ratio (%)” value turned out to be 15.0% and the Protection value is recorded as 70.

In general, melting point refers to the temperature of the solid-liquid transition. The compound `CCN(c1ccc(Cl)cc1[N+](=O)[O-])S(=O)(=O)c1ccc(C)cc1` [Compound No. 289, 4′-chloro-N-ethyl-2′-nitro-p-toluenesulfonanilide] returned a melting point of 132.5 to 134 °C. In series [2] (0.4 ppm active ingredient), the “Lesion area ratio (%)” value is listed as 19.8% and the Protection value was determined as 58. Further, in series [2] (1.6 ppm active ingredient), the “Lesion area ratio (%)” value was 19.5% and the Protection value worked out at 59. Further, in series [2] (6.3 ppm active ingredient), the “Lesion area ratio (%)” value came out at 3.5% and the Protection value was found to be 93. Also, in series [1] (0.5 ppm active ingredient), the “Lesion area ratio (%)” value is recorded as 17.5% and the Protection value worked out at 65.

On to `CO/N=C(/C(=O)OC)c1ccccc1COc1ccccc1C` [cresoxime methyl], for which, in series [1] (5.0 ppm active ingredient), the “Lesion area ratio (%)” value stood at 27.5% and the Protection value is given as 45.

On to `C[Si](Cn1cncn1)(c1ccc(F)cc1)c1ccc(F)cc1` [flusilazole], for which, in series [1] (5.0 ppm active ingredient), the “Lesion area ratio (%)” value was determined as 25.0% and the Protection value came out at 50.

As to `CO/C=C(/C(=O)OC)c1ccccc1COc1cccc(C(F)(F)F)n1` [picoxystrobin, methyl (E)-3-mthoxy-2-{2-[6-(trifluoromethyl)-2-pyridyloxymethyl]phenyl}acrylate], the “Lesion area ratio (%)” value amounted to 11.5% in series [2] (6.3 ppm active ingredient), 9.5% in series [2] (25.0 ppm active ingredient), 6.2% in series [2] (100.0 ppm active ingredient) and 17.5% in series [1] (0.2 ppm active ingredient). Further, the Protection value in series [2] (6.3 ppm active ingredient) is reported as 76; in series [2] (25.0 ppm active ingredient) it was 80; in series [2] (100.0 ppm active ingredient), 87; in series [1] (0.2 ppm active ingredient) it was 65.

As for `COC(=O)N(OC)c1ccccc1COc1ccn(-c2ccc(Cl)cc2)n1` [pyraclostrobin, methyl N-{2-[1-(4-chlorophenyl)-1-H-pyrazol-3-yloxymethyl]phenyl}(N-methoxy)carbamate], the “Lesion area ratio (%)” value is reported as 11.0% in series [2] (6.3 ppm active ingredient), 11.0% in series [2] (25.0 ppm active ingredient), 3.7% in series [2] (100.0 ppm active ingredient) and 12.5% in series [1] (0.2 ppm active ingredient). In addition, the Protection value came to 77 in series [2] (6.3 ppm active ingredient), 77 in series [2] (25.0 ppm active ingredient), 92 in series [2] (100.0 ppm active ingredient) and 75 in series [1] (0.2 ppm active ingredient).

For `CC(C)(C)C(O)(CCc1ccc(Cl)cc1)Cn1cncn1` (centres unmarked) [tebuconasole], in series [1] (5.0 ppm active ingredient), the “Lesion area ratio (%)” value stood at 22.5% and the Protection value came to 55.

`CO/N=C(/C(=O)OC)c1ccccc1CO/N=C(\C)c1cccc(C(F)(F)F)c1` [trifloxystrobin, methyl-(E)-methoxyimino-{(E)-α-[1-(α,α,α-trifluoro-m-tolyl)ethylideneaminooxy]-o-tolyl}acetate]: the “Lesion area ratio (%)” value in series [2] (6.3 ppm active ingredient) came out at 61.7%; in series [2] (25.0 ppm active ingredient), 4.7%; in series [2] (100.0 ppm active ingredient), 2.2%; in series [1] (0.2 ppm active ingredient) it was 27.5%. The Protection value in series [2] (6.3 ppm active ingredient) worked out at 0; in series [2] (25.0 ppm active ingredient), 90; in series [2] (100.0 ppm active ingredient), 95; in series [1] (0.2 ppm active ingredient) it was 45.
